Source: patent US9018370B2, “Derivatives of uridine phosphate and their uses in protein binding assays” (King's College London of Strand, priority 2009, dated 2015)

How the values were obtained:
[1] = Quantum yield determination of nucleotide derivatives; format: physicochemical; settings: for Quantum yield of reference compounds determined with this protocol: in H2O; for Q.Y.: in water
Experimental: Nucleotide derivatives were serially diluted in H2O (10, 20, 30, 40 and 50 μM for absorbance measurements, and 0.2, 0.4, 0.6, 0.8, 1 μM for fluorescence measurements), and UV absorbance and fluorescence emission (with λmax absorbance=λem fluorescence) were recorded for all samples. To determine quantum yields, for each absorbance and fluorescence spectrum the area under the curve (AUC) was calculated by numerical integration, applying the mid-point rule. For each compound, AUCabs and AUCem were then plotted over compound concentration according to AUCabs=A×[conc]+B and AUCem=A′×[conc]+B′. From these linear plots, the gradients A and A′ were extracted, and for each compound the specific quantum yield φs, under these experimental conditions, was calculated as the ratio A′/A. Quantum yields determined with this protocol for two reference compounds, 2-aminopyridine and L-tryptophan (2-aminopyridine: 0.60; L-tryptophan: 0.14) were in exact agreement with literature values. The quantum yields for reference compounds were used to calculate the general quantum yield φg for each nucleotide analogue, according to φg=φref×(A′/A)/(A′/A)ref.
Fluorescent uracil nucleosides and (sugar-)nucleotides can be obtained by connecting a known chromophore/fluorophore via an electronically nonconjugating linker to the natural uracil base (Sinkeldam et al. Chem. Rev. 2010, 110, 2579-2619). The photophysical features of the resulting nucleoside/(sugar-)nucleotide analogue are usually very similar to that of the parent fluorophore (Sinkeldam et al. Chem. Rev. 2010, 110, 2579-2619). In contrast, extending the uracil by electronically conjugating the base to additional aromatic moieties typically generates a new chromophore with unique, and somewhat unpredictable, photophysical characteristics (Sinkeldam et al. Chem. Rev. 2010, 110, 2579-2619). To precisely measure the intensity of the fluorescence emitted by the brightest fluorophores described above, we determined their quantum yield. These measurements were performed in water following the procedure reported by Nighswander-Remper and the results are shown in Table B below. Quantum yield determinations confirmed that 2p and 2q display the highest fluorescence and are 10-fold brighter than any other nucleotide analogues with a compact aryl- or heteroaryl substituent in position 5 that have been reported to date (Sinkeldam et al. Chem. Rev. 2010, 110, 2579-2619). That 2p and 2q absorb and fluoresce at long wavelength is an attractive feature, which makes these fluorophores suitable for analyses in biological environments. Additionally, we found the intensity of the fluorescence emission is conserved for UDP and UTP analogues, thereby providing attractive fluorescence probes candidates for fluorimetric assays.

[2] = Lakowicz, Principles of Fluorescence Spectroscopy; cited from earlier work
[3] = Influence of microenvironment (solvent) on fluorescence of 2q′; format: physicochemical
Experimental: Fluorescence intensity measurements were performed in NUNC F96 MicroWell polystyrene plates on a BMG labtech PolarStar plate reader equipped with a 350±5 nm absorbance filter and with a 430±5 nm emission filter. 10 μM solutions of 2q′ were prepared in HPLC grade water, acetonitrile and isopropanol. Sample assays with various solvent mixtures were incubated during 2 minutes at 30° C. prior to fluorescence measurement. Data were analysed with the help of GraFit version 5.0.10.
After identifying intense 5-arylated UMP fluorophores and understanding the origin of their fluorescence we investigated the influence of the microenvironment on the fluorescence signal. In order to generate a variety of microenvironments, we prepared 200 nM solutions of 5-(5-formyl-2-thiophene)-uridine 2q′ (the nucleoside analogue of 2q) in solvents varying in polarity index: (P): water (P=9), acetonitrile (MeCN, P=5.8) and isopropanol (IPA, P=3.9). We subsequently recorded absorbance and fluorescence signals for these three solutions (see FIG. 6).

B. taurus α-1,3-GalT [4] = molecular target: T1, B. taurus α-1,3-GalT (Bos taurus, UniProt P14769); test: Microplate fluorescence titration / ligand-displacement assay with fluorophore 3d; format: binding
T1 construct: made in house
T1 sequence (P14769 whole entry): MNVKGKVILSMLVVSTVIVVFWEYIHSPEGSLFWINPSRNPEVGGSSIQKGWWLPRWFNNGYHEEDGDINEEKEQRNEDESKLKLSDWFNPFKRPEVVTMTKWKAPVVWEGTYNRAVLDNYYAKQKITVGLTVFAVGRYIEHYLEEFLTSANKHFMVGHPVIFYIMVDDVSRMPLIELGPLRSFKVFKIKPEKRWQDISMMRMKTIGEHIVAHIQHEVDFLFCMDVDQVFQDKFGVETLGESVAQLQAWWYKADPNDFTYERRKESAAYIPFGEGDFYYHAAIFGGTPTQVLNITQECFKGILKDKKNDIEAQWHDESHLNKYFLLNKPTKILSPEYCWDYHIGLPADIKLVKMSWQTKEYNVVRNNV
Experimental: The fluorescence emission of a given fluorophore is influenced by its microenvironment, although different fluorophores vary their fluorescence emissions to different extents on changing microenvironment.
(§1) Fluorescence intensity measurements with 3d were carried out in black NUNC F96 MicroWell polystyrene plates on a BMG labtech PolarStar microplate reader equipped with a 350±5 nm excitation filter and a 430±5 nm emission filter. The number of flashes per wells was set to 50 (gain: 2240; position delay: 0.2 s). Prior to readings, plates were incubated, with shaking, for 10 min at 30° C. (double orbital, shaking width 4 mm, 10 seconds). Results were visualised with BMG labtech data analysis software Mars 1.10 and analysed with GraFit version 5.0.10.
(§2) Samples were pipetted into the requisite wells of a black NUNC 96-well plate as shown in tables E1-E3, at the end of the description. Key: B—Tris/HCl buffer (50 mM, pH 7; 40 μL); F—fluorophore 3d (200 nM in Tris/HCl buffer; 40 μL); M—MnCl2 (10 mM in Tris/HCl buffer; […]); E—galactosyltransferase (in Tris/HCl buffer; 40 μL); I—inhibitor (in Tris/HCl buffer; 40 μL). Total volume/well: 200 μL. All experiments were carried out in triplicate, unless indicated otherwise.

a-1.4-GalT = test: Titration of C-glycosidic fluorophore 2 with GalT and competition with ligands; format: binding
B. taurus α-1,3-GalT [5] = molecular target: T1, B. taurus α-1,3-GalT; test: Donor kinetics of UDP-Gal derivatives with GalT, HPLC; format: biochemical; settings: MnCl2 20 mM, MOPS pH 7.2, 37° C.
Experimental: J. Am. Chem. Soc. 122, 261-1269 (2000); Rich, J. R.; Szpacenko, A.; Palcic, M. M. & Bundle, D. R. Glycosyltransferase-Catalyzed Synthesis of Thiooligosaccharides. Angew. Chem. Int. Ed. […] ChemBioChem 9, 1632-1640 (2008). […] (total volume 100 μL, all concentrations are final concentrations). The reactions were stopped by cooling in dry ice. Samples were analysed immediately by HPLC on a PerkinElmer Series 200 machine equipped with a Supelcosil LC-18-T column (5 μm, 25 cm×4.6 mm), a column oven (set to 30° C.), and a diode array detector. Each sample (injection volume 40 μL) was eluted at 1.5 mL/min with a gradient of methanol (10-30%) against 0.5 M phosphate buffer (adjusted to pH 8 with triethylamine). […] Km and vmax values were determined by fitting data points to a Michaelis-Menten curve using GraFit 5.0.10.

[6] = Quantum yield determination of UDP-Gal derivatives 3a-d; format: physicochemical
Experimental: To determine quantum yields, for each absorbance and fluorescence spectrum the area under the curve (AUC) was calculated by numerical integration, applying the mid-point rule. For each compound, AUCabs and AUCfluo were then plotted over compound concentration according to AUCabs=A×[conc]+B (equation 1) and AUCfluo=A′×[conc]+B′ (equation 2). […] The quantum yields for reference compounds were used to calculate the general quantum yield φg for each compound 3a-d, according to φg=φref×(A′/A)/(A′/A)ref.

LgtC (N. meningitidis) = test: Titration of 3d with other GTs; format: binding
Experimental: as §1, §2
(§3) To assess the generality of this new GT assay principle, we next repeated the above experiments with another four GalTs, including mammalian and bacterial enzymes with different acceptor specificities and reaction mechanisms. […] The experimental protocol was the same as in Example 2. The amino acid sequences for four GalTs used in the experiment, i.e. LgtC (N. meningitidis), Ggta1 (B. taurus), GTB (H. sapiens) and AA(Gly)B GTB mutant (H. sapiens) or references where the sequence listings can be found are given above. The amino acid sequence for β4GalT (H. pylori) can be found above and in the following reference: Endo, T., Koizumi, S., Tabata, K. & Ozaki, A. Glycobiology 10, 809-813 (2000).

[7] = tested on: AA(Gly)B GTB mutant (H. sapiens); test: Titration of 3d with other GTs; format: binding
Experimental: as §1, §2, §3

GTB (H. sapiens) = test: Titration of 3d with other GTs; format: binding
Experimental: as §1, §2, §3

β4GalT (H. pylori) = test: Titration of 3d with other GTs; format: binding
Experimental: as §1, §2, §3

Ggta1 = molecular target: T2, Ggta1 (Bos taurus, UniProt P14769); test: Variation in fluorescence of 3d and analogues upon incubation with Ggta1; format: binding, B. taurus; settings: various concentrations of Ggta1
T2 construct: made in house
T2 sequence (P14769 whole entry): as above
Experimental: as §1, §2
We also carried out an experiment on 3d (numbered 18e in FIG. 4) and different analogues of 3d, namely the nucleoside 5h, the nucleotide 6r and nucleoside diphosphate 22d, to show their variation in fluorescence on binding to Ggta1.
The synthesis of 5h, 6r and 22d are shown below. The protocol for the microplate/fluorescence experiments was the same as in Example 2.

[8] = molecular target: T3, Streptococcus thermophilus UDP-Gal 4′-epimerase (GalE) (Streptococcus thermophilus, UniProt P21977); test: GalE-catalysed conversion of UDP-Gal into UDP-Glc, HPLC assay; format: biochemical
T3 construct: purchased Calbiochem
T3 sequence (P21977 whole entry): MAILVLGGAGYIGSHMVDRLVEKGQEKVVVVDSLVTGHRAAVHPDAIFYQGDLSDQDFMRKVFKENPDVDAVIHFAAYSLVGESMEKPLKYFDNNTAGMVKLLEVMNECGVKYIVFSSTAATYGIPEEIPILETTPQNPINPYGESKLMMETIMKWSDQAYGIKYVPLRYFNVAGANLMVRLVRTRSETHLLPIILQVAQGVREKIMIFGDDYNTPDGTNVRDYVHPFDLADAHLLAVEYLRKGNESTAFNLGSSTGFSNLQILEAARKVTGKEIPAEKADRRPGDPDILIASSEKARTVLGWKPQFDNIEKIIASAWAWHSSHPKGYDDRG
Experimental: The reactions were stopped by cooling in dry ice. […] Km and vmax values were determined by fitting data points to a Michaelis-Menten curve using GraFit 5.0.10. […] All experiments were carried out in triplicate.

[9] = Absorbance and fluorescence spectra of 5-R-UMP analogues; format: physicochemical; settings: for λmax: absorbance
Experimental: UV absorbance spectra were recorded on a PerkinElmer Lambda 25 UV-Vis spectrometer at ambient temperature in FarUV quartz cells (path length 1.0 cm). Fluorescence spectra were recorded on a PerkinElmer LS-45 spectrometer at ambient temperature in a quartz micro fluorescence cell (path length 1.0 cm).

Structure (SMILES): Nc1ccccn1 [2-aminopyridine, reference compound]
- Quantum yield of reference compounds determined with this protocol [1]: 0.60
- Quantum yield, literature values of reference compounds [2]: 0.60

Structure (SMILES): O=Cc1ccc(-c2cn([C@@H]3O[C@H](CO)[C@@H](O)[C@H]3O)c(=O)[nH]c2=O)s1 [2q′, 5-(5-Formylthien-2-yl)-uridine]
- Fluorescence in water relative to MeCN ([3]; 200 nM solutions): 20 fold
- Absorbance on change of solvent ([3]; water, MeCN, IPA): unaffected by a change in microenvironment

Structure (SMILES): O=c1ccn([C@@H]2O[C@H](COP(=O)(O)OP(=O)(O)O)[C@@H](O)[C@H]2O)c(=O)[nH]1 [UDP, reference compound]
- Fluorescence of 3d upon titration with competitive ligand (B. taurus α-1,3-GalT [4]; 3d and α-1.3-GalT present): restored
- Reversal of fluorescence quenching of 2 by titration with ligand (a-1.4-GalT): reversed

Structure (SMILES): O=Cc1ccc(-c2cn([C@@H]3O[C@H](COP(=O)(O)OP(=O)(O)O[C@H]4O[C@H](CO)[C@H](O)[C@H](O)[C@H]4O)[C@@H](O)[C@H]3O)c(=O)[nH]c2=O)s1 [3d, 5-(5-Formylthien-2-yl)-UDP-α-D-galactose]
- Km (B. taurus α-1,3-GalT [5]): 13 ± 1 µM
- kcat (B. taurus α-1,3-GalT [5]): 0.0019 s⁻¹
- Fluorescence of 3d upon titration with enzyme (B. taurus α-1,3-GalT [4]; in the absence of Mn^2+): little or no fluorescence quenching
- Fluorescence of 3d upon titration with enzyme (B. taurus α-1,3-GalT [4]; in the presence of MnCl2, 200 nM ligand, Tris pH 7): quenched in the presence of enzyme in a concentration-dependent manner
- Fluorescence (in words) [6]: much more strongly fluorescent
- Quantum yield relative to that of 3a [6]: 25 fold
- Quantum yield relative to that of the parent UDP-Gal [6]: ~6000 fold
- Quantum yield ([6]; in H2O): 0.26
- Fluorescence of 3d with enzyme (LgtC (N. meningitidis)): strong fluorescence quenching effect
- Fluorescence of 3d with enzyme [7]: strong fluorescence quenching effect
- Fluorescence of 3d with enzyme (GTB (H. sapiens)): strong fluorescence quenching effect
- Fluorescence of 3d with enzyme (β4GalT (H. pylori)): strong fluorescence quenching effect
- Variation in fluorescence on binding to Ggta1 (Ggta1): varied their intensity of luminescence with Ggta1

Structure (SMILES): N[C@@H](Cc1c[nH]c2ccccc12)C(=O)O [L-tryptophan, reference compound]
- Quantum yield of reference compounds determined with this protocol [1]: 0.14
- Quantum yield, literature values of reference compounds [2]: 0.14

Structure (SMILES): O=Cc1ccc(-c2cn([C@@H]3O[C@H](COP(=O)(O)OP(=O)(O)CC[C@H]4O[C@H](CO)[C@H](O)[C@H](O)[C@H]4O)[C@@H](O)[C@H]3O)c(=O)[nH]c2=O)s1 [compound 2, Bis(sodium) [2-(α-D-galactopyranosyl)-ethylphosphono]-5-(5-formylthien-2-yl)uridin-5′-yl phosphate]
- Ki ([8]; Dixon plot, 232 μM UDP-Gal): 426 µM
- Use as substrate by GalE ([8]; co-incubation, HPLC): does not use 2 as a substrate
- Fluorescence of 2 upon titration with GalT (a-1.4-GalT): quenched upon titration with a bacterial GalT

Structure (SMILES): O=c1ccn([C@@H]2O[C@H](COP(=O)(O)O)[C@@H](O)[C@H]2O)c(=O)[nH]1 [UMP, reference compound]
- Reversal of fluorescence quenching of 2 by titration with ligand (a-1.4-GalT): to a lesser extent
- Q.Y. [1]: 5e-05
- λmax [9]: 262 nm

Structure (SMILES): O=Cc1ccc(-c2cn([C@@H]3O[C@H](COP(=O)(O)O)[C@@H](O)[C@H]3O)c(=O)[nH]c2=O)s1 [2q, 5-(5-Formylthien-2-yl)-uridine-5′-monophosphate]
- Brightness relative to any other reported 5-aryl/heteroaryl nucleotide analogues [1]: 10 fold
- Q.Y. [1]: 0.26
- Fluo Intensity at 100 μM ([9]; 100 μM): >650 a.u.
- λmax [9]: 351 nm
- Emmax ([9]; fluorescence emission): 434 nm
- Variation in fluorescence on binding to Ggta1 (Ggta1): varied their intensity of luminescence with Ggta1
